# Results: patent publication US8609403B2, “Polynucleotide derived from novel hepatitis C virus strain and use thereof” (Tokyo Metropolitan Institute of Medical Science, priority 2009, dated 2013)
# System: HCV-RMT strain
# Experiment: Evaluation of anti-HCV agents in Huh7 cells maintaining the RMT recombinant virus (triple mutation), HCV amount by real-time PCR
# Format: cell-based, hepatitis C virus
# Conditions: Huh7 cells 10 days after introduction of RMT-tri genome; agent added 16 hours after plating, total RNA purified 48 hours later; FIG. 8
# Method: E1202G or the 3 acclimation mutations (E1202G, E1056V and A2199T) was/were introduced to pRMTx, and the obtained vectors were designated pRMTx-E1202G and pRMTx-tri, respectively. From pRMTx, pRMTx-E1202G and pRMTx-tri, viral genomic RNAs were prepared (RMT, RMT-E1202G and RMT-tri, respectively), and 30 μg each of the prepared genomic RNAs were introduced to Huh7 cells by electroporation. The cells were plated on a culture dish and subcultured 3 to 4 times per week, during which the cell were sampled. From the sampled cells, total RNA was purified by the AGPC method, and the copy number of the HCV genome per 1 μg of the total RNA was quantified according to a conventional method (Takeuchi et al., Gastroenterology, 1999) by reverse transcription real-time PCR using QuantiTect Multiplex PCR kit (manufactured by Qiagen). Daily changes in the copy number of the HCV genome in the cells to which RMT-RNA, RMT-E1202G-RNA and RMT-tri-RNA were respectively introduced are shown in FIG. 7.
# Further, 10 days after the introduction of the genome, the cells in the state where the HCV genome was maintained were plated on a 96-well plate, and an agent was added thereto 16 hours later, followed by purification of total RNA 48 hours later from each well using ABI prizm 6100 and a purification kit (manufactured by Applied Biosystems). The HCV amount in the RNA, which was obtained by the above real-time PCR, and the total RNA amount quantified using an absorption spectrophotometer are shown in FIG. 8. As anti-HCV agents, an HCV polymerase inhibitor (MK0608), HCV protease inhibitor (BILN2061), IFN-α and cyclophilin inhibitor (cyclosporin A) were used.
row,Compound,growth inhibition capacities against HCV
1,COc1ccc2c(O[C@@H]3C[C@H]4C(=O)N[C@]5(C(=O)O)C[C@H]5/C=C\CCCCC[C@H](NC(=O)OC5CCCC5)C(=O)N4C3)cc(-c3csc(NC(C)C)n3)nc2c1 [BILN2061],almost the same as those described in documents
2,C[C@@]1(O)[C@H](O)[C@@H](CO)O[C@H]1n1ccc2c(N)ncnc21 [MK0608],almost the same as those described in documents
3,IFN-α,almost the same as those described in documents
